Reference: patent US7588892B2, “Reagent sets and gene signatures for renal tubule injury” (Entelos, Inc., priority 2004, dated 2009)

Test system: renal tubules
Assay: 28-day repeat dose study of known nephrotoxicants, kidney histopathology on day 5 and day 28
Assay type: in vivo, rat
Conditions: for Class (nephrotoxic / non-nephrotoxic training label): male Sprague-Dawley rats, daily dose, route and vehicle of Table 2, late-onset renal tubular injury empirically confirmed after 28 days of dosing, expression profile day 5
Method: 28-day repeat dose studies were conducted on known nephrotoxicants. Doses were chosen that would not cause histological or clinical evidence of renal tubular injury after 5 days of dosing, but would cause histological evidence of tubular injury after 28 days of dosing. Animals were assigned to groups such that mean body weights were within 10% of the mean vehicle control group. Test compounds were administered either orally (10 ml of corn oil/kg body weight) or by intra-peritoneal injection (5 ml of saline/kg body weight). Animals were dosed once daily starting on day 0, and necropsied 24 hrs after the last dose following an overnight fast on day 5 (n=5) and day 28 (n=10). An equivalent number of time- and vehicle-matched control rats were treated concurrently.
To derive a signature predictive of renal tubular injury, it is necessary to first define both nephrotoxic and non-nephrotoxic treatments from short-term studies devoid of tissue injury that can be used to model the early transcriptional effects that will be predictive of late-onset toxicity.
Doses were chosen that would not cause histological or clinical evidence of renal tubular injury after 5 days of dosing, but would cause histological evidence of tubular injury after 28 days of dosing.
Male Sprague-Dawley (Crl:CD®(SD)(IGS)BR) rats (Charles River Laboratories, Portage, Mich.), weight matched, 7 to 8 weeks of age, were housed individually in hanging, stainless steel, wire-bottom cages in a temperature (66-77° F.), light (12-hour dark/light cycle) and humidity (30-70%) controlled room. […] Housing and treatment of the animals were in accordance with regulations outlined in the USDA Animal Welfare Act (9 CFR Parts 1, 2 and 3).
All animals were monitored daily for clinical observations approximately 1 hr after dosing. […] Paired organs were weighed together. Body weights were recorded pre-test and daily thereafter for reference database (i.e., DrugMatrix™) studies, and on days 0, 3, 5, 7, 14 and 28 for the sub-chronic studies. Terminal body weights were measured at necropsy and used to calculate relative organ weights and percent body weight gain relative to day 0.
The right kidney was preserved in 10% buffered formalin for tissue fixation and subsequently embedded in paraffin, sectioned and stained with hematoxylin and eosin. Sections (5 μm thick) were examined under light microscope by Board Certified Pathologists for histopathological lesions. The left kidney was snap frozen in liquid nitrogen for subsequent RNA extraction.

[1] = day 28, kidney histopathology, n=10

Compound	evidence of tubular injury (day 28, kidney histopathology)	incidence of interstitial inflammation [1]	proteinaceous casts, tubular cysts and mineralization, animals affected [1]	Class (nephrotoxic / non-nephrotoxic training label)
O=[N+]([O-])c1cc([As](=O)(O)O)ccc1O [ROXARSONE]	clear evidence of tubular injury	6 rats	one	Nephrotoxic
NC[C@H]1O[C@H](O[C@H]2[C@H](O)[C@@H](O[C@H]3O[C@H](CO)[C@@H](O)[C@H](N)[C@H]3O)[C@H](N)C[C@@H]2N)[C@H](N)C[C@@H]1O [TOBRAMYCIN]	–	–	–	Nephrotoxic
GENTAMICIN	–	–	–	Nephrotoxic
